Legend:
Assay in all cases: relative viability (nuclei count vs DMSO), 5 days (fraction); higher = more cells survive
[1] = compound: C1=CC2=NC=CN=C2C=C1/C=C/3\C(=O)NC(=O)S3 + CC(=O)c1c(C)c2cnc(Nc3ccc(N4CCNCC4)cn3)nc2n(C2CCCC2)c1=O [Palbociclib] (partner 0.5 µM)
Procedure, shortened: (§1)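 Lung cancer cell lines were pin-tool dosed in 1536-well plates on the day after seeding, with either a lone drug or a fixed anchor-drug dose plus five library-drug doses (not always all listed) in √10 steps. Nuclei were counted on 4× images after 5 days. Relative viability is the ratio of treated-well to vehicle-well nuclei counts, with each value a median of duplicate plates.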

[2] = compound: C1=CC2=NC=CN=C2C=C1/C=C/3\C(=O)NC(=O)S3 + CC1(C)CCC(c2ccc(Cl)cc2)=C(CN2CCN(c3ccc(C(=O)NS(=O)(=O)c4ccc(N[C@H](CCN5CCOCC5)CSc5ccccc5)c(S(=O)(=O)C(F)(F)F)c4)cc3)CC2)C1 [Navitoclax] (partner 0.5 µM)
Procedure, shortened: as §1

BGJ398 + Crizotinib = compound: CCN1CCN(c2ccc(Nc3cc(N(C)C(=O)Nc4c(Cl)c(OC)cc(OC)c4Cl)ncn3)cc2)CC1 [BGJ398] + C[C@@H](Oc1cc(-c2cnn(C3CCNCC3)c2)cnc1N)c1c(Cl)ccc(F)c1Cl [Crizotinib] (partner 1 µM)
Procedure, shortened: as §1

BGJ398 + Linsitinib = compound: CCN1CCN(c2ccc(Nc3cc(N(C)C(=O)Nc4c(Cl)c(OC)cc(OC)c4Cl)ncn3)cc2)CC1 [BGJ398] + C[C@]1(O)C[C@@H](c2nc(-c3ccc4ccc(-c5ccccc5)nc4c3)c3c(N)nccn32)C1 [Linsitinib] (partner 1 µM)
Procedure, shortened: as §1

Cell Line	relative viability ([1]; first compound 0.02 µM)	relative viability ([1]; first compound 0.06325 µM)	relative viability ([1]; first compound 0.2 µM)	relative viability ([1]; first compound 0.6325 µM)	relative viability ([1]; first compound 2 µM)	relative viability ([2]; first compound 0.02 µM)	relative viability ([2]; first compound 0.06325 µM)	relative viability ([2]; first compound 0.2 µM)	relative viability ([2]; first compound 0.6325 µM)	relative viability ([2]; first compound 2 µM)	relative viability (BGJ398 + Crizotinib; first compound 0.01 µM)	relative viability (BGJ398 + Crizotinib; first compound 0.03162 µM)	relative viability (BGJ398 + Crizotinib; first compound 0.1 µM)	relative viability (BGJ398 + Crizotinib; first compound 0.3162 µM)	relative viability (BGJ398 + Crizotinib; first compound 1 µM)	relative viability (BGJ398 + Linsitinib; first compound 0.01 µM)	relative viability (BGJ398 + Linsitinib; first compound 0.03162 µM)	relative viability (BGJ398 + Linsitinib; first compound 0.1 µM)	relative viability (BGJ398 + Linsitinib; first compound 0.3162 µM)	relative viability (BGJ398 + Linsitinib; first compound 1 µM)
NCI-H838	0.217	0.25	0.233	0.179	0.17	1.1	1.32	1.13	1.02	1.11	0.804	0.837	0.781	0.782	0.652	0.94	0.979	0.927	0.919	0.716
NCI-H1355	0.359	0.419	0.401	0.359	0.358	0.87	1.01	1.05	1.03	0.951	1.01	1.02	1.03	0.962	1.08	0.741	0.807	0.827	0.779	0.823
NCI-H1437	0.306	0.297	0.328	0.305	0.277	1.03	1.1	1.12	1.07	0.93	0.91	0.924	0.941	1.02	0.877	0.999	0.995	1.04	1.05	1.06
NCI-H1651	0.495	0.503	0.507	0.515	0.453	0.989	1.03	0.915	0.981	1.08	0.843	0.865	0.874	0.876	0.892	0.874	0.938	1.05	1.04	0.895
NCI-H1666	0.608	0.749	0.629	0.651	0.675	0.9	0.954	0.913	0.989	0.919	0.944	1.06	0.938	1.3	0.96	0.708	0.812	0.816	0.835	0.709
NCI-H1734	0.328		0.333	0.352	0.318	0.799		0.897	0.78	0.877	0.611	0.647	0.719	0.594	0.554	0.816	0.873	0.907	0.864	0.917
NCI-H1755	0.428	0.429	0.461	0.432	0.446	0.881	0.947	1.03	0.975	0.936	0.907	0.888	0.884	0.868	0.84	0.93	1.01	0.983	0.955	1.01

Reference: the supplement of paper PMC10307832
